Test results from patent publication US20040018623A1, “Medium for preparing dedifferentiated cells” (priority 1999, published 2004).

Legend:
isolated canine islets = experiment: Islet-cystic (duct epithelial) transformation / transdifferentiation of isolated islets; format: cell-based; details: for cystic transformation, % of control: at 72 hours, islets pre-incubated prior to embedding in collagen, control = DMEM/F12-CT group; for ductal transformation in suspension with soluble matrix protein: islets in suspension in DMEM/F12-CT supplemented with soluble protein (50 μg/ml)
[1] = molecular target: integrins (on isolated canine islet cells) (dog); experiment: cell-based or functional assay

Molecule | cystic transformation, % of control (isolated canine islets) | ductal transformation in suspension with soluble matrix protein (isolated canine islets) | other results
GRGDSP [reference compound] | 57 % of control |  | islet cell transdifferentiation after prior incubation of freshly isolated islets with peptide (isolated canine islets; prior incubation of islets with the peptide): partially blocked
GRGESP [control peptide, reference compound] |  |  | influence on the transformation process (isolated canine islets; islets pre-incubated with peptide (400 μg/ml) prior to embedding in collagen): little influence
fibronectin | 50 % of control | failed to undergo ductal transformation | 
laminin | 50 % of control | failed to undergo ductal transformation | 
GRGDSP [RGD-motif containing GRGDSP peptide] |  |  | islet-cystic transformation at 72 hours, percent of the control DMEM/F12-CT group [1]: 57 % of control
